From publication PMC5507339, “Small-molecule inhibition of pyruvate phosphate dikinase targeting the nucleotide binding site” (PLoS ONE, 2017)
“Also recorded” adds a separate entry of the source.

How the values were obtained:
[1] = molecular target: T1, PPDK from Flaveria trinervia (Flaveria trinervia, UniProt P22221); experiment: biochemical; settings: for IC50: 0.2 μM PPDK, inhibitor 0-200 μM, mean ± standard error; for Residual PPDK activity relative to DMSO-treated controls: inhibitor 100 μM
T1 construct: His10 (N); TEV cleavage site (N); made in house; host or cells: E. coli BL21 (DE3)
T1 sequence (P22221 80-953): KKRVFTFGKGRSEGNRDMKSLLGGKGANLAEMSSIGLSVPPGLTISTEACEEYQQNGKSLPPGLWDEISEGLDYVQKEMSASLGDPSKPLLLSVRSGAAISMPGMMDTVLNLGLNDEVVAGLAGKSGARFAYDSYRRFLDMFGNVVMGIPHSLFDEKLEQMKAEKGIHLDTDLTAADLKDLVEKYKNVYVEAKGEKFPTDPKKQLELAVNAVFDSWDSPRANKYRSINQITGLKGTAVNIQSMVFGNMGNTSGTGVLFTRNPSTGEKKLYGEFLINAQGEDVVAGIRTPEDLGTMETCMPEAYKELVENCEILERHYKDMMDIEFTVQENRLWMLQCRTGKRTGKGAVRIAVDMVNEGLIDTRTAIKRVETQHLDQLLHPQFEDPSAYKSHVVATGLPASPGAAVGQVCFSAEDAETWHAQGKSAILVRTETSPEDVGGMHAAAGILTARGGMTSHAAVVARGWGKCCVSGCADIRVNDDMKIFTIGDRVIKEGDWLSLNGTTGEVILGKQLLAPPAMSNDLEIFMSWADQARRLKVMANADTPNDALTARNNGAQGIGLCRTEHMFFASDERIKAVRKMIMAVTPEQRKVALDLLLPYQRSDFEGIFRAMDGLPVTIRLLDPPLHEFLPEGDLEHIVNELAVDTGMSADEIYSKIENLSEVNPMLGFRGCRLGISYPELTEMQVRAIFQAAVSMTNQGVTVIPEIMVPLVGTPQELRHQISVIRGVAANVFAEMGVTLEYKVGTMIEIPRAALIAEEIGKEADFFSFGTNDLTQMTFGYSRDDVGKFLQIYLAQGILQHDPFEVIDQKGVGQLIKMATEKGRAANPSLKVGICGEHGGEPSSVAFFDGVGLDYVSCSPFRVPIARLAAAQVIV
Procedure: Heterologous gene expression and purification of the recombinant PPDK were performed as described in [11]. A modified pET-16b vector (Merck, Darmstadt, GER) which contained an N-terminal histidine10 tag, followed by a TEV cleavage site and the sequence encoding for PPDK from Flaveria trinervia (EMBL X75516) was used for heterologous expression in E. coli strain BL21 (DE3). Transformed cells were grown to an OD600 of 0.6–0.8 in 2YT medium at 30°C before expression was induced by the addition of 0.1 mM isopropyl-β-D-1-thiogalactopyranoside. Cells were harvested after over night incubation at 30°C and 180 rpm. Preceding purification, cells were resuspended in lysis buffer (50 mM Tris/HCl pH 7.5, 300 mM NaCl, 10 mM imidazole, 10 mM MgSO4, 10% (w/v) glycerol, 5 mM DTT, 0.002% (w/v) phenylmethanesulfonylfluoride) and disrupted using a cell disruptor (Constant Systems). PPDK was purified using a nickel affinity chromatography column (GE Healthcare, Munich, GER). Purification (50 mM Tris/HCl pH 7.5, 300 mM NaCl, 10 mM MgSO4, 10% (w/v) glycerol, 5 mM DTT) and elution buffer (50 mM Tris/HCl pH 7.5, 300 mM NaCl, 500 mM imidazole, 10 mM MgSO4, 10% (w/v) glycerol, 5 mM DTT) were used for further purification steps. PPDK bound to the column was washed in steps of 50 mM, 150 mM and 200 mM imidazole, before final elution with 500 mM imidazole. Protein-rich fractions were pooled and a PD-10 desalting column (GE Healthcare) was used to change the elution buffer for assay buffer (100 mM Tris/HCl pH 8.0, 10 mM MgCl2, 2.5 mM KH2PO4, 6 mM glucose-6-phosphate, 5 mM NaHCO3, 0.1 mM EDTA, 5 mM DTT). The buffer-exchanged sample was eventually concentrated by ultrafiltration (30 kDa cutoff, Millipore).
Activity of purified PPDK was measured according to Salahas et al., Doyle et al. in a 96 well microtiter plate layout by a coupled spectrophotometrical assay. In this assay, the carboxylation of PEP by PEPC is linked to the oxidation of NADH by NADH-malate dehydrogenase (NADH-MDH). PEP is formed by PPDK via ATP-driven phosphorylation of pyruvate. Eventually, the consumption of one molecule NADH is equivalent to the formation of one molecule of PEP by PPDK. The assay was performed in a sample volume of 100 μL at 30°C in a M200 plate reader (Tecan, Crailsheim, GER). 0.2 μM PPDK were mixed with 0.2 mM NADH, 2.5 mM sodium pyruvate, 0.8 U bacterial PEPC (Sigma-Aldrich, Darmstadt, GER) and 2 U NADH-MDH (Sigma-Aldrich). The reaction mixture was filled up to a total volume of 100 μL per sample with assay buffer (100 mM Tris/HCl pH 8.0, 10 mM MgCl2, 2.5 mM KH2PO4, 6 mM glucose-6-phosphate, 5 mM NaHCO3, 0.1 mM EDTA, 5 mM DTT). PPDK was pre-incubated for 20 min at 30°C to ensure full activity. Inhibitors were dissolved in water free dimethyl sulfoxide (DMSO) with a final concentration of 10 mM and were added prior to adjusting the final sample volume. To account for possible effects of DMSO on PPDK activity, the solvent was added to the controls in an amount equal to the largest DMSO concentration used in the experiments. Incubation time of the final sample mixture including inhibitors and PPDK was 15 min. Initial comparative screening was perfomed using 100 μM of each compound. The absorbance at 340 nm was recorded for 30 s with an interval of 300 ms. […] A four-parameter log-logistic dose-response curve was then globally fitted to the individual replicates using the R software collection and the R package “drc” [28] as proposed by assessment of Akaike’s information criterion (AIC). PPDK was incubated for 10 min with the inhibitors before each measurement. To exclude PEPC or NADH-MDH inhibition by the selected compounds, the initial screening assay was repeated in triplicates for those compounds without adding PPDK and starting the reaction by injection of PEP instead of ATP.

[2] = molecular target: receptor tyrosine kinases; set-up: method as in PMID 16648571; settings: ATP-competitive; cited from earlier work
Zea mays leaf slices = experiment: Inhibition of oxygen evolution during C4 photosynthesis, leaf slices, Clark-type O2 electrode; format: cell-based; settings: for inhibition at 20 µg/mL: 20 μg mL^−1; for inhibition at 40 µg/mL: 40 μg mL^−1
Procedure: Oxygen (O2) evolution, driven by the C4 acid cycle, was measured according to refs [21, 22, 31]. The reaction chamber of a Clark-type O2 electrode (Hansatech, Norfolk, UK) was filled with 1 mL of degassed buffer containing 0.33 M sorbitol, 2.5 mM NaH2PO4, 2.5 mM MgCl2, 25 mM HEPES/KOH pH 7.5, 50 μM MnCl2 and 2.5 mM dithiothreitol (DTT). An area sized approx. 1 cm^2 was cut from a mature leaf of the C4 model plant Zea mays and processed into slices of ∼ 1 mm width. The leaf slices were added to the electrode chamber and the recording of O2 evolution was started while keeping the chamber in the dark. The O2 evolution rate recorded in this period was later substracted from the subsequently recorded rates to account for the electrode drift. Once the system had stabilized, the chamber was illuminated using a Schott KL 1500 electronic light source. Again, the system was given time to stabilize before the C4-driven O2 evolution was initiated by the addition of first NaHCO3 and then pyruvate in final concentrations of 4 mM each. […] All measurements were done in triplicates.
Directly following the measurement, leaf slices were removed from the chamber and transferred to 1 mL of 80% acetone (v/v) for chlorophyll extraction. The samples were kept at 4°C in the dark for 48 h.

Zea mays PPDK = system: Zea mays PPDK; set-up: method as in earlier work; settings: PPDK from leaf extracts; ref 21 (Haines et al.); cited from earlier work

Cc1ccc(F)c(NC(=O)Nc2ccc(-c3cccc4[nH]nc(N)c34)cc2)c1 [ABT-869]
IC50 [1]: 11.2 ± 0.24 µM
Residual PPDK activity relative to DMSO-treated controls [1]: below 30%
IC50 [2]: 0.004 µM

O=C1NC(=O)C(c2c[nH]c3ccccc23)=C1c1c[nH]c2ccccc12 [BIM IV, bisindolylmaleimide IV]
IC50 [1]: 0.76 ± 0.13 µM
inhibition at 20 µg/mL (Zea mays leaf slices): 20%
inhibition at 40 µg/mL (Zea mays leaf slices): 36%

CN(C)CC1CCn2c(c(C3=C(c4cn(C)c5ccccc45)C(=O)NC3=O)c3ccccc32)C1 (stereo not shown) [BIM XI, bisindolylmaleimide XI]
Effect on PPDK activity ([1]; initial screening): did not show any effect; also recorded: no effect

COc1ccc2c(c1)c(C1=C(c3c[nH]c4ccccc34)C(=O)NC1=O)cn2CCCN(C)C [Go6983]
IC50 [1]: 1.5 ± 0.6 µM
inhibition at 20 µg/mL (Zea mays leaf slices): 19%
inhibition at 40 µg/mL (Zea mays leaf slices): 29%

CN1C(=O)C(c2c[nH]c3ccccc23)=C(c2c[nH]c3ccccc23)C1=O [bisindolylmaleimide V]
Residual PPDK activity relative to DMSO-treated controls [1]: 15%

C=C1CCC[C@H]2[C@](C)(CC3=C(O)C(=O)C=C(OC)C3=O)[C@@H](C)CC[C@]12C [ilimaquinone]
IC50 [1]: 740 ± 566 µM
IC50 (Zea mays PPDK): 292 ± 23 µM
